Experimental data as given in ChEMBL document CHEMBL6120962, “New Mitochondria-Targeted Fisetin Derivative Compromises Mitophagy and Limits Survival of Drug-Induced Senescent Breast Cancer Cells” (J Med Chem, 2024).
The source made the active and inactive calls. The rule behind the calls is not given here.

Tests used:
[1] = test system: Mitochondrial membrane; experiment: Induction of mitochondrial membrane potential depolarization in tamoxifen-induced senescent human ZR-75-30 cells assessed as increase in depolarized dead cell level at 1 to 5 uM incubated for 24 hrs by 7-AAD staining based flow cytometric analysis; format: cell membranes; settings: dose 1-5 µM
[2] = test system: HCC1428; experiment: Anticancer activity against ER-positive human HCC1428 cells assessed as effect on metabolic activity upto 10 uM incubated for 24 hrs by MTT assay; format: functional, cell-based
[3] = test system: HCC1428; experiment: Induction of mitochondrial dysfunction in tamoxifen-induced senescent human HCC1428 cells assessed as decrease in coupling efficiency respiration at 5 uM incubated for 6 hrs by real-time analysis; format: functional, cell-based
[4] = test system: T47D; experiment: Antitumor activity against ER-positive human T47D cells xenografted in Danio rerio embryo assessed as increase in p21 mRNA level at 1 to 5 uM administered for 48 hrs by RT-PCR analysis; format: functional, cell-based; settings: dose 1-5 µM
[5] = test system: HCC1428; experiment: Induction of ubiquitin-dependent mitophagy in tamoxifen-induced senescent human HCC1428 cells assessed as increase in parkin level at 5 uM by immunostaining based imaging cytometric analysis; format: functional, cell-based
[6] = test system: HCC1428; experiment: Induction of oxidative stress in tamoxifen-induced senescent human HCC1428 cells assessed as increase in cytosolic SOD1 level at 1 to 5 uM incubated for 24 hrs by MitoSOX red superoxide indicator based fluorescence analysis; format: functional, cell-based; settings: dose 1-5 µM
[7] = test system: HCC1428; experiment: Induction of autophagy in tamoxifen-induced senescent human HCC1428 cells assessed as increase in ULK1 level at 1 to 5 uM by immunostaining based imaging cytometric analysis; format: functional, cell-based; settings: dose 1-5 µM
[8] = test system: ZR-75-30; experiment: Effect on IL-8 level in human ZR-75-30 cells at 5 uM incubated for 24 hrs by immunostaining based imaging cytometric analysis; format: functional, cell-based
[9] = test system: Mitochondrial membrane; experiment: Induction of mitochondrial membrane potential depolarization in tamoxifen-induced senescent human HCC1500 cells assessed as increase in depolarized dead cell level at 1 to 5 uM incubated for 24 hrs by 7-AAD staining based flow cytometric analysis; format: cell membranes; settings: dose 1-5 µM
[10] = test system: CAMA-1; experiment: Induction of apoptosis in tamoxifen-induced senescent human CAMA-1 cells assessed as decrease in HSP90 level incubated for 24 hrs by immunostaining based imaging cytometric analysis; format: functional, cell-based
[11] = test system: HCC1500; experiment: Induction of apoptosis in human HCC1500 cells assessed as phosphatidylserine externalization at 1 to 5 uM incubated for 24 hrs by Annexin V-FITC staining based flow cytometric analysis; format: functional, cell-based; settings: dose 1-5 µM
[12] = test system: HCC1428; experiment: Induction of senescence in human HCC1428 cells assessed as increase in IL-8 level at 5 uM incubated for 24 hrs by immunostaining based imaging cytometric analysis; format: functional, cell-based
[13] = test system: ZR-75-30; experiment: Induction of apoptosis in human ZR-75-30 cells assessed as decrease in Bcl2 level at 1 to 5 uM incubated for 24 hrs by Western blot analysis; format: functional, cell-based; settings: dose 1-5 µM
[14] = test system: ZR-75-30; experiment: Induction of apoptosis in human ZR-75-30 cells assessed as phosphatidylserine externalization at 1 to 5 uM incubated for 24 hrs by Annexin V-FITC staining based flow cytometric analysis; format: functional, cell-based; settings: dose 1-5 µM
[15] = test system: BJ; experiment: Cytotoxicity against human BJ cells assessed as effect on metabolic activity at 1 to 10 uM incubated for 24 hrs by MTT assay; format: toxicity, cell-based; settings: dose 1-10 µM
[16] = test system: HCC1428; experiment: Induction of apoptosis in human HCC1428 cells assessed as phosphatidylserine externalization at 1 to 5 uM incubated for 24 hrs by Annexin V-FITC staining based flow cytometric analysis; format: functional, cell-based; settings: dose 1-5 µM
[17] = test system: MCF-10F; experiment: Induction of apoptosis in tamoxifen-induced senescent human MCF-10F cells assessed as assessed as phosphatidylserine externalization at 1 to 5 uM incubated for 24 hrs by Annexin V-FITC staining based flow cytometric analysis; format: functional, cell-based; settings: dose 1-5 µM
[18] = test system: ZR-75-30; experiment: Anticancer activity against ER-positive human ZR-75-30 cells assessed as effect on metabolic activity upto 10 uM incubated for 24 hrs by MTT assay; format: functional, cell-based
[19] = test system: HCC1428; experiment: Induction of mitochondrial dysfunction in human HCC1428 cells assessed as decrease in spare respiratory capacity at 5 uM incubated for 6 hrs by real time analysis; format: functional, cell-based
[20] = test system: MCF-10F; experiment: Induction of apoptosis in human MCF-10F cells assessed as assessed as phosphatidylserine externalization at 1 to 5 uM incubated for 24 hrs by Annexin V-FITC staining based flow cytometric analysis; format: functional, cell-based; settings: dose 1-5 µM
[21] = test system: Mitochondrial membrane; experiment: Induction of mitochondrial membrane potential depolarization in human ZR-75-30 cells at 1 uM incubated for 24 hrs by 7-AAD staining based flow cytometric analysis; format: cell membranes
[22] = test system: HCC1428; experiment: Induction of ubiquitin-independent mitophagy in tamoxifen-induced senescent human HCC1428 cells assessed as increase in BNIP3 level at 1 to 5 uM by immunostaining based imaging cytometric analysis; format: functional, cell-based; settings: dose 1-5 µM
[23] = test system: CAMA-1; experiment: Induction of senescence in human CAMA-1 cells assessed as increase in IL-8 level at 5 uM incubated for 24 hrs by immunostaining based imaging cytometric analysis; format: functional, cell-based
[24] = test system: HCC1500; experiment: Induction of apoptosis in human HCC1500 cells assessed as decrease in Bcl2 level at 1 to 5 uM incubated for 24 hrs by Western blot analysis; format: functional, cell-based; settings: dose 1-5 µM
[25] = test system: Mitochondrial membrane; experiment: Induction of mitochondrial membrane potential depolarization in tamoxifen-induced senescent human HCC1428 cells assessed as increase in depolarized dead cell level at 1 to 5 uM incubated for 24 hrs by 7-AAD staining based flow cytometric analysis; format: cell membranes; settings: dose 1-5 µM
[26] = test system: Mitochondrial membrane; experiment: Induction of mitochondrial membrane potential depolarization in human ZR-75-30 cells assessed as increase in fraction of depolarized dead cells at 5 uM incubated for 24 hrs by 7-AAD staining based flow cytometric analysis; format: cell membranes
[27] = test system: HCC1428; experiment: Induction of mitochondrial dysfunction in tamoxifen-induced senescent human HCC1428 cells assessed as decrease in ATP production at 5 uM incubated for 6 hrs by real-time analysis; format: functional, cell-based
[28] = test system: CAMA-1; experiment: Induction of apoptosis in human CAMA-1 cells assessed as phosphatidylserine externalization at 1 to 5 uM incubated for 24 hrs by Annexin V-FITC staining based flow cytometric analysis; format: functional, cell-based; settings: dose 1-5 µM
[29] = test system: ZR-75-30; experiment: Induction of oxidative stress in tamoxifen-induced senescent human ZR-75-30 cells assessed as increase in cytosolic SOD1 level at 1 to 5 uM incubated for 24 hrs by MitoSOX red superoxide indicator based fluorescence analysis; format: functional, cell-based; settings: dose 1-5 µM
[30] = test system: CAMA-1; experiment: Induction of apoptosis in human CAMA-1 cells assessed as decrease in Bcl2 level at 1 to 5 uM incubated for 24 hrs by Western blot analysis; format: functional, cell-based; settings: dose 1-5 µM
[31] = test system: ZR-75-30; experiment: Induction of senescence in human ZR-75-30 cells assessed as […] in beta-galactosidase activity at 5 uM incubated for 24 hrs by immunostaining based imaging cytometric analysis; format: functional, cell-based
[32] = molecular target: Apoptosis regulator Bcl-2 (Homo sapiens) (UniProt P10415); experiment: Binding affinity to recombinant human Bcl-2 assessed as interaction by measuring decrease in chemiluminescence signal at 0.01 to 5 uM incubated overnight by dot-blot analysis; settings: dose 0.01-5 µM
[33] = test system: HCC1428; experiment: Induction of apoptosis in tamoxifen-induced senescent human HCC1428 cells assessed as increase in caspase 9 level incubated for 24 hrs by immunostaining based imaging cytometric analysis; format: functional, cell-based
[34] = test system: MCF-10F; experiment: Induction of mitochondrial dysfunction in tamoxifen-induced senescent human MCF-10F cells assessed as decrease in spare respiratory capacity at 5 uM incubated for 6 hrs by real-time analysis; format: functional, cell-based
[35] = test system: ZR-75-30; experiment: Induction of apoptosis in tamoxifen-induced senescent human ZR-75-30 cells assessed as increase in caspase 3 level incubated for 24 hrs by immunostaining based imaging cytometric analysis; format: functional, cell-based

Chain of Apoptosis regulator Bcl-2 (Homo sapiens) (P10415 whole entry): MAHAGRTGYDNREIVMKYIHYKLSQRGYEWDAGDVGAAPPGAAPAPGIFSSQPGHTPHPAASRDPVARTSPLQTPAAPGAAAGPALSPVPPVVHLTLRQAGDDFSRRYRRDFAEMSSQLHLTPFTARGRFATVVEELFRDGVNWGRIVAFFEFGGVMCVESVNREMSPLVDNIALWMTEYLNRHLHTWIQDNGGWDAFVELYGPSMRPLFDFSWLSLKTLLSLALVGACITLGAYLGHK

CC(=O)Oc1ccc2c(=O)c(OCCCC[P+](c3ccccc3)(c3ccccc3)c3ccccc3)c(-c3ccc4c(c3)OC(c3ccccc3)(c3ccccc3)O4)oc2c1.[I-]
Activity [1]: Active | Activity [2]: Active | Activity [3]: Active | Activity [4]: Active | Activity [5]: Active | Activity [6]: Active | Activity [7]: Active | Activity [8]: inactive | Activity [9]: Active | Activity [10]: Active | Activity [11]: Active | Activity [12]: Active | Activity [13]: Active | Activity [14]: Active | Activity [15]: Non-toxic | Activity [16]: Active | Activity [17]: Active; Slight Effect Observed | Activity [18]: Active | Activity [19]: Active | Activity [20]: inactive | Activity [21]: Active | Activity [22]: inactive | Activity [23]: inactive | Activity [24]: Active | Activity [25]: Active | Activity [26]: Active | Activity [27]: Active | Activity [28]: Active | Activity [29]: Active | Activity [30]: Active | Activity [31]: Active | Activity [32]: Active | Activity [33]: Active | Activity [34]: inactive | Activity [35]: Active
